The source of these data is patent publication US20040116506A1, “Use of levetiracetam for treating or preventing acute headaches” (priority 2002, published 2004).

The test system of data set [1] is recurrent migraine headaches. In words: Oral levetiracetam as a prophylactic agent, small-scale open-label trial. It is filed as in vivo. The settings on record: chronic daily oral treatment, 250 to 750 mg tablets; substantial fraction of patients. The text has this: A limited number of patients who were being treated by the Applicant for recurrent migraine headaches were placed on a regimen of daily oral levetiracetam, in a small-scale open-label trial. […] In general, the recurrent migraine patients who were chosen for this type of experimental trial were those who had not responded adequately to various other known candidate treatments. Patients kept daily records of the frequency of their migraine headaches, and also kept logs that recorded the severity of each headache, on a subjective scale of 1 to 10, with 1 being mild, and 10 being extremely intense pain.

A further data set has as its system epileptic seizures. The following applies: taken chronically; patients who suffer from frequent seizures; cited from earlier work.
For data set [2] the following is noted: over a wide dose range; cited from earlier work.
The subject of data set [3] is intractable migraine headache. In words: Injectable (intravenous) levetiracetam for acute migraines, open-label study. It is filed as in vivo, patients. As to the method: Sterile, preservative-free liquid preparations of levetiracetam, at concentrations of 200 mg/ml or 400 mg/ml, was prepared in a laminar flow hood by a compounding pharmacist. Particulate matter was filtered out through a series of filtrations and the solution was stabilized at a pH of 6.0. The resulting solution was clear. 29 patients were treated (19 female and 10 male), and a total of 42 intractable migraines were treated in this study. Their age range was 26 to 59 (mean age, 44 years). All patients had failed treatment with their usual migraine-specific or abortive therapies. Most patients (n=24) were in the second or third day of intractable migraine headache. 5 patients were treated on more than one occasion (1 patient was treated 6 separate times; 1 patient, 5 times, 1 patient, 3 times; and 2 patients, twice each). 6 patients (21%) were already on levetiracetam orally at the time of intravenous treatment. 23 were naive to levetiracetam at the time of treatment. Patients were treated in the setting of a headache clinic. An antecubital line was started and pulse oximetry monitoring was employed throughout treatment. No other medications were given orally or intravenously to treat the migraine. In a typical treatment for a first-time patient, a test dose of 400 mg levetiracetam was given, and then 400-600 mg was given every 5 minutes, until maximum effect was reported by the patient. The average dosage given intravenously was 5940 mg (range 400 to 16,000 mg). The average time to best response after treatment was 66 min (range=20-120 min). Prior to treatment, migraine severity (reported by each patient on a 0 to 10 numeric rating scale (NRS), with 10 representing the absolute worst possible pain) was 8.4. After treatment, it was 1.6, which represents a mean reduction of 81% in migraine severity. 16 patients (55%), representing 21 of 42 episodes, had complete resolution of their ongoing migraine, to a reported severity of zero. Only one patient had no reported response to the treatment.

On to `CC[C@@H](C(N)=O)N1CCCC1=O` [levetiracetam], for which, in data set [1], the “reduced frequency and/or reduced severity of migraine headaches” value is “substantial benefits”. Moreover, the “reduction of the frequency of epileptic seizures” value with epileptic seizures is 15 to 30%. For the same compound, in data set [2], the tolerability / toxicity entry is recorded as “well tolerated over a wide dose range with no apparent toxicity”. Moreover, in data set [3] (intravenous), the “episodes with complete resolution of ongoing migraine” value is listed as 21 of 42 episodes and the side effects entry is “minimal”. The “time to best response after treatment, range” value in data set [3] (intravenous, 29 patients, 42 migraines) fell in the range of 20 to 120 min. The “mean reduction in migraine severity” value in data set [3] (intravenous, NRS 8.4 prior to treatment vs 1.6 after) stood at 81%. Also, the “average time to best response after treatment” value in data set [3] (intravenous, average dosage 5940 mg, 29 patients, 42 migraines) came to 66 min. For the same compound, the “time until side effects dissipated spontaneously” value in data set [3] (intravenous, nausea and drowsiness) was in the range of 30 to 90 min. For the same compound, in data set [3] (intravenous, of 29 patients), the patients reporting drowsiness amounted to 2 patients; the “patients reporting transient nausea” value was 3 patients; the “patients with complete resolution of ongoing migraine, to a reported severity of zero” value amounted to 16 patients; the “patients with no reported response to the treatment” value is listed as “one”. In addition, in data set [3] (intravenous, of 29 patients), the “share of patients with complete resolution of ongoing migraine” value was 55%. Further, the “migraine severity after treatment (0 to 10 numeric rating scale, NRS)” value in data set [3] (intravenous, severity prior to treatment was 8.4) is listed as 1.6. Also, in data set [3] (one patient), the “outcome in patient treated for a combination of cluster headaches and migraines” value is listed as “resolution of both”.
